PubChem BioAssay AID330 (DTP/NCI, 2004)
Several values for one entry are separate records, joined by “and”; a condition that tells them apart may be missing. Equal entries are not always repeated. Inconclusive results and toxic doses are left out. Rule for the calls: active = survival T/C of 150% or more; inactive = T/C below 125% in these data.

Tested on: P388 leukemia ip, CD2F1 mice, survival T/C
Test: NCI In Vivo Anticancer Drug Screen. Data for tumor model P388 Leukemia (intraperitoneal) in CD2F1 (CDF1) mice
Conditions: endpoint: median survival time, higher = longer survival
Summary of the method: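 Mice carrying the transplanted tumor received test compound or vehicle. Survival was recorded in each group, and the value is the treated-group measurement divided by that of the vehicle-treated control group.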

[1] = dose: 25.0 mg/kg/injection, schedule: Q01DX009 (ip), vehicle: saline with Tween-80
[2] = dose: 50.0 mg/kg/injection, schedule: Q01DX009 (ip), vehicle: saline
[3] = dose: 100.0 mg/kg/injection, schedule: Q01DX009 (ip), vehicle: saline
[4] = dose: 200.0 mg/kg/injection, schedule: Q01DX009 (ip), vehicle: saline
[5] = dose: 50.0 mg/kg/injection, schedule: Q04DX003 (ip), vehicle: saline with Tween-80
[6] = dose: 100.0 mg/kg/injection, schedule: Q04DX003 (ip), vehicle: saline with Tween-80
[7] = dose: 50.0 mg/kg/injection, schedule: Q01DX005 (ip), vehicle: saline with Tween-80
[8] = dose: 100.0 mg/kg/injection, schedule: Q01DX005 (ip), vehicle: saline with Tween-80
[9] = dose: 60.0 mg/kg/injection, schedule: Q01DX005 (ip), vehicle: saline with Tween-80
[10] = dose: 120.0 mg/kg/injection, schedule: Q01DX005 (ip), vehicle: saline with Tween-80
[11] = dose: 100.0 mg/kg/injection, schedule: Q01DX009 (ip), vehicle: Klucel (hydroxypropylcellulose) (HPC)
[12] = dose: 200.0 mg/kg/injection, schedule: Q01DX009 (ip), vehicle: Klucel (hydroxypropylcellulose) (HPC)
[13] = dose: 50.0 mg/kg/injection, schedule: Q01DX009 (ip), vehicle: saline with Tween-80
[14] = dose: 50.0 mg/kg/injection, schedule: Q01DX009 (ip), vehicle: Klucel (hydroxypropylcellulose) (HPC)
[15] = dose: 100.0 mg/kg/injection, schedule: Q01DX009 (ip), vehicle: saline with Tween-80
[16] = dose: 100.0 mg/kg/injection, schedule: Q04DX002 (ip), vehicle: saline with Tween-80

Measured: T/C

O/N=c1\cc(-c2ccccc2)oc2ccccc12
inactive: dose: 16.7 mg/kg/injection, schedule: Q01DX009 (ip), vehicle: saline with Tween-80 97 % of control | [1] 102 % of control | dose: 37.5 mg/kg/injection, schedule: Q01DX009 (ip), vehicle: saline with Tween-80 100 % of control

CC(CC(=O)O)C(N)C(=O)O (stereo unspecified)
inactive: dose: 50.0 mg/kg/injection, schedule: Q01DX005 (ip), vehicle: saline 96 % of control | [2] 92 % of control | dose: 100.0 mg/kg/injection, schedule: Q01DX005 (ip), vehicle: saline 95 % of control | [3] 91 % of control | dose: 200.0 mg/kg/injection, schedule: Q01DX005 (ip), vehicle: saline 101 % of control | [4] 92 % of control

CC(C)(C)OC(=O)C(N)C(F)C(=O)OC(C)(C)C (stereo unspecified)
inactive: dose: 25.0 mg/kg/injection, schedule: Q04DX003 (ip), vehicle: saline with Tween-80 96 % of control | [5] 101 % of control | [6] 99 % of control and 104 % of control | dose: 400.0 mg/kg/injection, schedule: Q04DX003 (ip), vehicle: saline with Tween-80 97 % of control

COc1cccc(Oc2ccc(C)c[n+]2CC(C)=O)c1
inactive: dose: 25.0 mg/kg/injection, schedule: Q01DX005 (ip), vehicle: saline with Tween-80 100 % of control | [7] 105 % of control

COc1cc(COC(=O)c2ccc(CSc3ccc(Cl)cc3)o2)cc(OC)c1OC
inactive: [7] 99 % of control | [8] 99 % of control

Cc1ccc2c(c1)C1(SC(C)C(=O)N1c1ccc(Cl)cc1)C(=O)N2 (stereo unspecified)
inactive: dose: 30.0 mg/kg/injection, schedule: Q01DX005 (ip), vehicle: saline with Tween-80 103 % of control | [9] 114 % of control and 121 % of control | [10] 119 % of control

CCOC(=O)C(SC#N)[Se]c1ccccc1 (stereo unspecified)
inactive: [7] 106 % of control | [8] 109 % of control

COc1ccc(/C=C(/C(=O)O)c2ccc(OC)cc2)cc1
inactive: dose: 100.0 mg/kg/injection, schedule: Q04DX003 (ip), vehicle: other 100 % of control | dose: 200.0 mg/kg/injection, schedule: Q04DX003 (ip), vehicle: other 95 % of control | dose: 400.0 mg/kg/injection, schedule: Q04DX003 (ip), vehicle: other 100 % of control

CCCCC(CC)CCC(CC(C)C)OCCC#N (stereo unspecified)
inactive: [11] 100 % of control | [12] 96 % of control | dose: 400.0 mg/kg/injection, schedule: Q01DX009 (ip), vehicle: Klucel (hydroxypropylcellulose) (HPC) 90 % of control

Cc1nc2c(sc(=N)n2-c2ccccc2)c(=O)[nH]1
inactive: dose: 12.5 mg/kg/injection, schedule: Q01DX009 (ip), vehicle: saline with Tween-80 115 % of control | [1] 106 % of control | [13] 103 % of control

Cln1c2c(c3ccccc31)CN(Cc1ccccc1)CC2
inactive: [14] 105 % of control | [11] 106 % of control | [12] 97 % of control

Cc1ccccc1C(C)(O)Cc1nccn1Cc1ccccc1 (stereo unspecified)
inactive: [9] 99 % of control | [10] 104 % of control | dose: 240.0 mg/kg/injection, schedule: Q01DX005 (ip), vehicle: saline with Tween-80 96 % of control

COc1ccc(C2=C(Cl)C(=O)N(c3ccc(OC)cc3)C(=O)C2(Cl)Cl)cc1
inactive: dose: 100.0 mg/kg/injection, schedule: Q04DX002 (ip), vehicle: Klucel (hydroxypropylcellulose) (HPC) 101 % of control | dose: 200.0 mg/kg/injection, schedule: Q04DX002 (ip), vehicle: Klucel (hydroxypropylcellulose) (HPC) 95 % of control | dose: 400.0 mg/kg/injection, schedule: Q04DX002 (ip), vehicle: Klucel (hydroxypropylcellulose) (HPC) 111 % of control

Cc1ccc(S(=O)(=O)N(CCCc2c(-c3ccccc3)nc(N)[nH]c2=O)c2ccccc2)cc1
inactive: dose: 3.75 mg/kg/injection, schedule: Q01DX005 (ip), vehicle: saline with Tween-80 102 % of control | dose: 7.5 mg/kg/injection, schedule: Q01DX005 (ip), vehicle: saline with Tween-80 94 % of control | dose: 15.0 mg/kg/injection, schedule: Q01DX005 (ip), vehicle: saline with Tween-80 107 % of control and 87 % of control | [9] 98 % of control and 90 % of control

COC1/C=C/OC2(C)Oc3c(C)c(O)c4c(c3C2=O)C(=O)C=C(NC(=O)/C(C)=C\C=C\C(C)C(OC=O)C(C)C(O)C(C)C(OC(C)=O)C1C)C4=O (stereo unspecified)
inactive: [13] 100 % of control | [15] 92 % of control | dose: 200.0 mg/kg/injection, schedule: Q01DX009 (ip), vehicle: saline with Tween-80 91 % of control

CC(C)(C)[P+](C)(C)c1ccccc1
inactive: dose: 12.5 mg/kg/injection, schedule: Q04DX003 (ip), vehicle: Klucel (hydroxypropylcellulose) (HPC) 105 % of control | dose: 25.0 mg/kg/injection, schedule: Q04DX003 (ip), vehicle: Klucel (hydroxypropylcellulose) (HPC) 100 % of control

CCCCCCCCCCCC[N+](C)([O-])CCCCCC[N+](C)([O-])CCCCCCCCCCCC (stereo unspecified)
inactive: dose: 12.5 mg/kg/injection, schedule: Q01DX009 (ip), vehicle: Klucel (hydroxypropylcellulose) (HPC) 96 % of control | dose: 25.0 mg/kg/injection, schedule: Q01DX009 (ip), vehicle: Klucel (hydroxypropylcellulose) (HPC) 95 % of control | [14] 100 % of control and 95 % of control

CCC/C(=N\NC(N)=Nc1ccc(Cl)cc1)c1ccc(Cl)cc1
inactive: dose: 25.0 mg/kg/injection, schedule: Q04DX002 (ip), vehicle: saline with Tween-80 99 % of control | dose: 50.0 mg/kg/injection, schedule: Q04DX002 (ip), vehicle: saline with Tween-80 100 % of control | [16] 104 % of control

O=C(O)CCC(=O)OCCNCCOC(=O)CCC(=O)O
inactive: [2] 92 % of control | [3] 96 % of control | [4] 99 % of control

Cc1cc(C)c(-c2cc(C(O)C3OC4OC(C)(C)OC4C3O)on2)c(C)c1 (stereo unspecified)
inactive: [7] 108 % of control | [8] 90 % of control

CC(=O)OC1CC2CCC1(C)C2(C)C (stereo unspecified)
inactive: [13] 109 % of control | [5] 105 % of control | [15] 104 % of control | [6] 100 % of control | dose: 200.0 mg/kg/injection, schedule: Q04DX003 (ip), vehicle: saline with Tween-80 100 % of control

CC(C)CCCCCCCCCCCCC(=O)NCC(=O)NC1C(O)C(O)C(Nc2ncnc3nc[nH]c23)C(O)C1O (stereo unspecified)
inactive: dose: 0.5 mg/kg/injection, schedule: Q01DX009 (ip), vehicle: other 105 % of control | dose: 1.0 mg/kg/injection, schedule: Q01DX009 (ip), vehicle: other 101 % of control | dose: 2.0 mg/kg/injection, schedule: Q01DX009 (ip), vehicle: other 91 % of control | dose: 4.0 mg/kg/injection, schedule: Q01DX009 (ip), vehicle: other 91 % of control | dose: 8.0 mg/kg/injection, schedule: Q01DX009 (ip), vehicle: other 101 % of control | dose: 16.0 mg/kg/injection, schedule: Q01DX009 (ip), vehicle: other 95 % of control | dose: 32.0 mg/kg/injection, schedule: Q01DX009 (ip), vehicle: other 90 % of control

COP(=S)(OC)Oc1ccc(S(N)(=O)=O)cc1
inactive: [16] 102 % of control | dose: 200.0 mg/kg/injection, schedule: Q04DX002 (ip), vehicle: saline with Tween-80 98 % of control | dose: 400.0 mg/kg/injection, schedule: Q04DX002 (ip), vehicle: saline with Tween-80 98 % of control

CCOC(=O)c1ccc(NC(=O)Nc2ccc(N(C)C(C)=O)cc2)cc1
inactive: dose: 60.0 mg/kg/injection, schedule: Q01DX005 (ip), vehicle: Klucel (hydroxypropylcellulose) (HPC) 90 % of control | dose: 120.0 mg/kg/injection, schedule: Q01DX005 (ip), vehicle: Klucel (hydroxypropylcellulose) (HPC) 90 % of control | dose: 240.0 mg/kg/injection, schedule: Q01DX005 (ip), vehicle: Klucel (hydroxypropylcellulose) (HPC) 88 % of control

CC(C)N(C(=S)/N=C1/SC(C)S(=O)(=O)N1C)C(C)C (stereo unspecified)
inactive: [1] 117 % of control | [13] 97 % of control | [15] 100 % of control

O=C(CC1=NC2NN(c3ccccc3)C(=O)C2=C1CC(=O)c1ccc(Cl)c(Cl)c1)c1ccc(Cl)c(Cl)c1 (stereo unspecified)
inactive: dose: 60.0 mg/kg/injection, schedule: Q01DX005 (ip), vehicle: saline 99 % of control | dose: 120.0 mg/kg/injection, schedule: Q01DX005 (ip), vehicle: saline 100 % of control | dose: 240.0 mg/kg/injection, schedule: Q01DX005 (ip), vehicle: saline 107 % of control

COC1=C(C)C(=O)c2c(c(COC(N)=O)c3n2CC2C3N2C)C1=O (stereo unspecified)
inactive: dose: 6.25 mg/kg/injection, schedule: Q04DX003 (ip), vehicle: saline with Tween-80 100 % of control | dose: 12.5 mg/kg/injection, schedule: Q04DX003 (ip), vehicle: saline with Tween-80 90 % of control
